Measurements taken from ChEMBL document CHEMBL1132945, “Ethylene glycol and amino acid derivatives of 5-aminolevulinic acid as new photosensitizing precursors of protoporphyrin IX in cells” (J Med Chem, 2000).

Legend:
[1] = system: A549; assay: Cytotoxicity against A549 cells; No cytotoxicity; type: functional, cell-based; details: Homo sapiens
[2] = system: HCEC; assay: Cytotoxicity against HCEC cells; No cytotoxicity; type: functional, cell-based; details: Homo sapiens

CCOCCOC(=O)CCC(=O)CN
Cytotoxicity [1]: No cytotoxicity | Cytotoxicity [2]: No cytotoxicity

CCOCCOCCOC(=O)CCC(=O)CN
Cytotoxicity [1]: No cytotoxicity | Cytotoxicity [2]: No cytotoxicity

CCOCCOCCOCCOC(=O)CCC(=O)CN
Cytotoxicity [1]: No cytotoxicity | Cytotoxicity [2]: No cytotoxicity

COCCOC(=O)CCC(=O)CN
Cytotoxicity [1]: No cytotoxicity | Cytotoxicity [2]: No cytotoxicity
